# Measurements published in patent US7407775B2, “Method for identifying Listeria monocytogenes and culture medium” (Biomerieux S.A., priority 2000, dated 2008).
# Assays:
# Type in all cases: cell-based
# [1] = system: Listeria innocua ATCC 33090; test: Experiment 2: octanoate esterase substrates with different Indoxyl-based chromogenic markers; parameters: key: —: the symbol “-” corresponds to the absence of color or intensity; 0 corresponds to no activity; 0.1 corresponds to a trace of color; 0.5 corresponds to very pale coloration; 1 corresponds to clear but low-intensity coloration; 1.5 corresponds to a degree of coloration intermediate between scores 1 and 2; 2 corresponds to clear coloration of moderate intensity; 2.5 corresponds to a degree of coloration intermediate between scores 2 and 3; 3 corresponds to intense coloration; 3.5 corresponds to a degree of coloration intermediate between scores 3 and 4; 4 corresponds to very intense coloration; conditions: 37° C., substrate 250 mg/l
# Protocol: (§1) In Table 1 above, as in the following Tables, C represents the color of the colonies after incubation, I represents the intensity of the color, and the symbol “-” corresponds to the absence of color or intensity; finally, IT defines the incubation time. It should be noted that the intensity of the color is scored on an arbitrary scale but one which is consistent for all the biological specimens and media tested. This scale is valid for this experiment as well as all those that follow. It can be defined in the following way: • 0 corresponds to no activity, • 0.1 corresponds to a trace of color, • 0.5 corresponds to very pale coloration, • 1 corresponds to clear but low-intensity coloration, • 1.5 corresponds to a degree of coloration intermediate between scores 1 and 2, • 2 corresponds to clear coloration of moderate intensity, • 2.5 corresponds to a degree of coloration intermediate between scores 2 and 3, • 3 corresponds to intense coloration, • 3.5 corresponds to a degree of coloration intermediate between scores 3 and 4, • 4 corresponds to very intense coloration.
# (§2) A stock solution of each substrate at a concentration of 40 g/l was made up in a mixture of 40% Dimethylsulfoxide and 60% Tween 20. An appropriate volume was added to four Columbia-type media while cooling to give a final substrate concentration of 250 mg/l. These dishes were divided into three areas and then each area was inoculated with a suspension (density=0.5 McFarland) of microorganisms taken from either the Applicant's own collection or the ATCC. The dishes were incubated for 48 hours at 37° C. The colonies which grew were examined by eye after 24 and 48 hours of incubation. Both the color and the intensity of the color of the colonies were recorded.
# Listeria ivanovii 018 = test: as above; parameters: key: —: the symbol “-” corresponds to the absence of color or intensity; 0 corresponds to no activity; 0.1 corresponds to a trace of color; 0.5 corresponds to very pale coloration; 1 corresponds to clear but low-intensity coloration; 1.5 corresponds to a degree of coloration intermediate between scores 1 and 2; 2 corresponds to clear coloration of moderate intensity; 2.5 corresponds to a degree of coloration intermediate between scores 2 and 3; 3 corresponds to intense coloration; 3.5 corresponds to a degree of coloration intermediate between scores 3 and 4; 4 corresponds to very intense coloration; conditions: 37° C., substrate 250 mg/l
# Protocol: as §1, §2
# Listeria species = test: Experiment 3: differentiation of Listeria species in liquid medium
# Protocol: as §1
# These substrates were lyophilized in the wells of API-type strips (Registered Trademark). Before use, the substrates contained in the wells were resuspended in an agar-free Columbia-type inoculation medium. […]
# The intensity of the color of the colonies was recorded.
SMILES,C (color of the colonies) ([1]; IT 24 h),I (intensity of the color) ([1]; IT 24 h),C (color of the colonies) ([1]; IT 48 h),I (intensity of the color) ([1]; IT 48 h),C (color of the colonies) (Listeria ivanovii 018; IT 24 h),I (intensity of the color) (Listeria ivanovii 018; IT 24 h),C (color of the colonies) (Listeria ivanovii 018; IT 48 h),I (intensity of the color) (Listeria ivanovii 018; IT 48 h),differentiation between L. monocytogenes and other species belonging to the same genus (Listeria species)
"CCCCCCCC(=O)Oc1c[nH]c2cc(Cl)ccc12 [Pink-C8, 6-Chloro-3-indolyl octanoate]",—,—,pink,0.5,—,—,—,—,
"CCCCCCCC(=O)Oc1c[nH]c2ccc(Br)c(Cl)c12 [X-C8, 5-Bromo-4-chloro-3-indolyl octanoate]",turquoise,0.3,turquoise,0.5,—,—,—,—,gave a contrast in color
"CCCCCCCC(=O)Oc1c[nH]c2ccc(Br)cc12 [Blue-C8, 5-Bromo-3-indolyl octanoate]",gray,0.3,gray,0.5,—,—,—,—,
"CCCCCCCC(=O)Oc1c[nH]c2cc(Cl)c(Br)cc12 [Magenta-C8, 5-Bromo-6-chloro-3-indolyl octanoate]",purple,1,purple,2,—,—,—,—,
